Data from ChEMBL document CHEMBL3596130 (Bioorg Med Chem Lett, 2015).
Square brackets hold non-standard residues; d marks the D form. Peptide text beside a SMILES is read from it. * marks the point of attachment. Tyr(Nα,Nα-allyl2) = C=CCN(CC=C)[C@@H](Cc1ccc(O)cc1)C(=O)*; Aib = CC(C)(N)C(=O)O

Columns and labels:
[1] = target: T1, Delta-type opioid receptor (Homo sapiens, UniProt P41143); assay: Inverse agonist activity at human DOR expressed in CHO cell membranes by [35S]GTPgammaS binding assay; type: functional
T1 sequence (P41143 whole entry): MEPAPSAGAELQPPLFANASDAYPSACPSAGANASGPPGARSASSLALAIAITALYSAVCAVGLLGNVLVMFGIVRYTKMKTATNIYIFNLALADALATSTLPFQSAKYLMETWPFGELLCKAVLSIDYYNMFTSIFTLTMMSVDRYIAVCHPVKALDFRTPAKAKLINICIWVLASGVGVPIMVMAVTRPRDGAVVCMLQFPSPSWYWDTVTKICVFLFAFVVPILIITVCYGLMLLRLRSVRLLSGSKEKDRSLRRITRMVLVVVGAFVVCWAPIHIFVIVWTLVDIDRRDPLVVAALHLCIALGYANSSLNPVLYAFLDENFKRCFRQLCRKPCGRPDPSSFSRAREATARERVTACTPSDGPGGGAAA

[2] = target: T1, Delta-type opioid receptor; assay: Inverse agonist activity at human DOR expressed in CHO cell membranes by [35S]GTPgammaS binding assay relative to control; type: functional
[3] = target: Mu-type opioid receptor (Homo sapiens, UniProt P35372); assay: Displacement of [3H]DAMGO from human MOR expressed in CHO cells; type: cell-based
Mu-type opioid receptor, sequence (P35372 whole entry): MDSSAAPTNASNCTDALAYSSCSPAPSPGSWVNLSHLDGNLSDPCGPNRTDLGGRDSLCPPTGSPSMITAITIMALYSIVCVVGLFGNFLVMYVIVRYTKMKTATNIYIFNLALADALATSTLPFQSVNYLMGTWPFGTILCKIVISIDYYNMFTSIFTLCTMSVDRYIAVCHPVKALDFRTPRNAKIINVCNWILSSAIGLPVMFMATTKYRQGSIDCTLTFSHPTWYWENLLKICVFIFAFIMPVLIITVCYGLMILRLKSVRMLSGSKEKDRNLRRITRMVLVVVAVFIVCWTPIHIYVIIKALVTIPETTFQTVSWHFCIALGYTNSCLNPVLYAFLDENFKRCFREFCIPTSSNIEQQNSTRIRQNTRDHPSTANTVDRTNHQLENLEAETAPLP

[4] = target: T1, Delta-type opioid receptor; assay: Displacement of [3H]DPDPE from human DOR expressed in CHO cells; type: cell-based
[5] = target: Kappa-type opioid receptor (Homo sapiens, UniProt P41145); assay: Displacement of [3H]U-69,593 from human KOR expressed in CHO cells; type: cell-based
Kappa-type opioid receptor, sequence (P41145 whole entry): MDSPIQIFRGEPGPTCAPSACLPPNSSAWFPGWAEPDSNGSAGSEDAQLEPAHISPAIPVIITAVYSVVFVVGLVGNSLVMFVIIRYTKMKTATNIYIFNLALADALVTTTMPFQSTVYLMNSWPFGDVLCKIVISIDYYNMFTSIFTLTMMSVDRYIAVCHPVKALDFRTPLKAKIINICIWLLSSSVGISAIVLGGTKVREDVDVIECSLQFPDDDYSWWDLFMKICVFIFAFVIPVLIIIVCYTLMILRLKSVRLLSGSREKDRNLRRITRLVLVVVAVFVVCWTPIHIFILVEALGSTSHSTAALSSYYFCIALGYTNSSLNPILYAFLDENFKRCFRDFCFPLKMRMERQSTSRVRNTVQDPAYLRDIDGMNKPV

[6] = species: Homo sapiens; assay: Selectivity index, ratio of Ki for human KOR to Ki for human DOR
[7] = species: Homo sapiens; assay: Selectivity index, ratio of Ki for human MOR to Ki for human DOR

Question: For `Oc1ccc2c3c1O[C@H]1c4[nH]c5ccccc5c4C[C@@]4(O)[C@@H](C2)N(CC(F)F)CC[C@]314`, which EC50 [1] is on record?
Answer: Its EC50 is 17.2 nM.

Question: And the Emax [2]?
Answer: The Emax was -48.6%.

Question: What about the Ki [3] of the same compound?
Answer: The Ki was greater than 1000 nM.

Question: And the Ki [4]?
Answer: Its Ki is 15.5 nM.

Question: And the Ki [5]?
Answer: The Ki was greater than 1000 nM.

Question: What does the source list for `CCCN1CC[C@]23c4c5ccc(O)c4O[C@H]2c2nc4ccccc4cc2C[C@@]3(O)[C@H]1C5`?
Answer: Ratio Ki [6]: 113; EC50 [1]: 5.85 nM; Emax [2]: 62.4%; Ratio Ki [7]: 44.5; Ki [3]: 123 nM; Ki [4]: 2.77 nM; Ki [5]: 313 nM

Question: What does the source list for `Oc1ccc2c3c1O[C@H]1c4nc5ccccc5cc4C[C@@]4(O)[C@@H](C2)N(CC(F)(F)F)CC[C@]314`?
Answer: Ki [3]: > 1000 nM; Ki [4]: 37.8 nM; Ki [5]: > 1000 nM

Question: `CCN1CC[C@]23c4c5ccc(O)c4O[C@H]2c2[nH]c4ccccc4c2C[C@@]3(O)[C@H]1C5` was tested. Which Ratio Ki [6] did it give?
Answer: The Ratio Ki was 172.

Question: What about the Ratio Ki [7] of the same compound?
Answer: Its Ratio Ki is 291.

Question: And the Ki [3]?
Answer: Its Ki is 788 nM.

Question: What about the Ki [4] of the same compound?
Answer: Its Ki is 2.71 nM.

Question: And the Ki [5]?
Answer: The Ki was 468 nM.

Question: Which results are given for `Oc1ccc2c3c1O[C@H]1c4[nH]c5ccccc5c4C[C@@]4(O)[C@@H](C2)N(CC(F)(F)F)CC[C@]314`?
Answer: EC50 [1]: 45.5 nM; Emax [2]: -44.8%; Ki [3]: > 1000 nM; Ki [4]: 134 nM; Ki [5]: > 1000 nM

Question: `Oc1ccc2c3c1O[C@H]1c4nc5ccccc5cc4C[C@@]4(O)[C@@H](C2)N(CC(F)F)CC[C@]314` was tested. Which Ki [3] did it give?
Answer: The Ki was greater than 1000 nM.

Question: And the Ki [4]?
Answer: Its Ki is 18.2 nM.

Question: What about the Ki [5] of the same compound?
Answer: Its Ki is greater than 1000 nM.

Question: Which results are given for `C=CCN(CC=C)[C@@H](Cc1ccc(O)cc1)C(=O)NC(C)(C)C(=O)NC(C)(C)C(=O)N[C@@H](Cc1ccccc1)C(=O)N[C@@H](CC(C)C)C(=O)O` ({Tyr(Nα,Nα-allyl2)}-[Aib][Aib]FL-OH)?
Answer: EC50 [1]: 116 nM; Emax [2]: -100%

Question: With `CCN1CC[C@]23c4c5ccc(O)c4O[C@H]2c2nc4ccccc4cc2C[C@@]3(O)[C@H]1C5` as the compound, how does the Ratio Ki [6] read?
Answer: The Ratio Ki was 53.7.

Question: And the EC50 [1]?
Answer: The EC50 was 6.71 nM.

Question: What about the Emax [2] of the same compound?
Answer: Its Emax is 41.2%.

Question: And the Ratio Ki [7]?
Answer: Its Ratio Ki is 75.4.

Question: What about the Ki [3] of the same compound?
Answer: Its Ki is 670 nM.

Question: And the Ki [4]?
Answer: Its Ki is 8.89 nM.

Question: And the Ki [5]?
Answer: The Ki was 477 nM.

Question: How did the Ratio Ki [6] turn out when `Oc1ccc2c3c1O[C@H]1c4nc5ccccc5cc4C[C@@]4(O)[C@@H](C2)N(CCF)CC[C@]314` was run?
Answer: The Ratio Ki was 153.

Question: What about the EC50 [1] of the same compound?
Answer: Its EC50 is 24.7 nM.

Question: What about the Emax [2] of the same compound?
Answer: The Emax was 27.1%.

Question: What about the Ratio Ki [7] of the same compound?
Answer: Its Ratio Ki is 75.7.

Question: And the Ki [3]?
Answer: The Ki was 422 nM.

Question: And the Ki [4]?
Answer: The Ki was 5.58 nM.

Question: What about the Ki [5] of the same compound?
Answer: Its Ki is 854 nM.

Question: With `Oc1ccc2c3c1O[C@H]1c4nc5ccccc5cc4C[C@@]4(O)[C@@H](C2)N(CC2CC2)CC[C@]314` as the compound, how does the Ratio Ki [6] read?
Answer: The Ratio Ki was 27.1.

Question: What about the EC50 [1] of the same compound?
Answer: Its EC50 is 9.78 nM.

Question: And the Emax [2]?
Answer: The Emax was 32.4%.

Question: What about the Ratio Ki [7] of the same compound?
Answer: Its Ratio Ki is 51.1.

Question: What about the Ki [3] of the same compound?
Answer: The Ki was 20.8 nM.

Question: What about the Ki [4] of the same compound?
Answer: The Ki was 0.407 nM.

Question: And the Ki [5]?
Answer: Its Ki is 11 nM.

Question: Which Ratio Ki [6] does the source give for `CCCN1CC[C@]23c4c5ccc(O)c4O[C@H]2c2[nH]c4ccccc4c2C[C@@]3(O)[C@H]1C5` here?
Answer: Its Ratio Ki is 66.9.

Question: And the Ratio Ki [7]?
Answer: Its Ratio Ki is 120.

Question: And the Ki [3]?
Answer: The Ki was 133 nM.

Question: What about the Ki [4] of the same compound?
Answer: The Ki was 1.11 nM.

Question: What about the Ki [5] of the same compound?
Answer: The Ki was 74.3 nM.

Question: With `Oc1ccc2c3c1O[C@H]1c4[nH]c5ccccc5c4C[C@@]4(O)[C@@H](C2)N(CCF)CC[C@]314` as the compound, how does the Ratio Ki [6] read?
Answer: Its Ratio Ki is 204.

Question: What about the EC50 [1] of the same compound?
Answer: The EC50 was 220 nM.

Question: What about the Emax [2] of the same compound?
Answer: The Emax was -38.1%.

Question: What about the Ratio Ki [7] of the same compound?
Answer: The Ratio Ki was 348.

Question: And the Ki [3]?
Answer: The Ki was 675 nM.

Question: What about the Ki [4] of the same compound?
Answer: The Ki was 1.94 nM.

Question: What about the Ki [5] of the same compound?
Answer: The Ki was 397 nM.
